Assay results reported in publication PMC11477482 (Molecules, 2024).
Entries after “also recorded” stand apart in the source; their conditions may differ.

Legend:
[1] = set-up: method as in earlier work; settings: ref (2) of the supplement; read-out: DPPH scavenging EC50 (literature value); cited from earlier work
[2] = Stability at different pH values (UV-vis absorbance); type: physicochemical; settings: for pH stability: 100 µM buffered solutions, pH 2 to 8
Protocol: Buffer solutions with pH values between 2 and 8 were prepared and their pH was measured. The buffer solutions were prepared according to Portuguese Pharmacopeia 11.0 specifications. Each compound solution (100 µM) buffered at a specific pH was prepared in triplicate. The solutions were stored at room temperature and protected from light. Aliquots of 3.00 mL were transferred to quartz cuvettes at specific time points, and their absorbance was measured by ultraviolet/visible (UV–vis) spectrophotometry. The blank for each pH corresponded to 3.00 mL of the respective buffer.

[3] = tested on: NO production in LPS-stimulated RAW 264.7 macrophages; experiment: NO production in LPS-stimulated macrophages (Griess assay); type: cell-based, mouse; settings: LPS 100 ng/mL, 24 h
Protocol: The human keratinocytes (HaCaT, CLS 300493, Eppelheim, Germany) cell line was cultured with Dulbecco’s Modified Eagle’s Medium (DMEM) (Sigma-Aldrich, St. Louis, MO, USA), supplemented with 10% (v/v) of heat-inactivated fetal bovine serum (FBS), 1% (v/v) antibiotic solution (from a 10,000 U/mL penicillin and 10,000 μg/mL streptomycin stock) (Gibco, Carlsbad, CA, USA), 3.7 g/L sodium bicarbonate, and 1 mM sodium pyruvate (Sigma-Aldrich, St. Louis, MO, USA). The cell culture of keratinocytes was detached with EDTA solution 1X (Sigma-Aldrich, St. Louis, MO, USA) when the cells reached 70–80% confluence in cell culture flasks. The mouse macrophage cell line (RAW 264.7, ATCC TIB-71, Manassas, VA, USA) was cultured in DMEM supplemented with 10% (v/v) non-inactivated FBS, 1% (v/v) antibiotic solution, 1.5 g/L sodium bicarbonate, and 1 mM sodium pyruvate. Macrophages were mechanically detached with a cell scraper and subcultured in (1:10) proportion of cellular suspension to a final volume of DMEM. The human monocytic cell line THP-1 (ATCC® TIB-202™, American Type Culture Collection, Manassas, VA, USA) was cultivated in RPMI 1640 supplemented with 10% inactivated FBS, 25 mM (D)-glucose, 10 mM HEPES, 1 mM sodium pyruvate, 100 U/mL penicillin, and 100 μg/mL streptomycin, and maintained at a cell density of 0.4 × 10^6 cells/mL. Cells were subcultured every 2 or 3 days and maintained in culture for 2–3 months, according to ATCC® instructions. Nitric oxide (NO) production was measured by quantifying the accumulation of nitrites in culture supernatants using the Griess assay. […] After a 30 min incubation period at room temperature, protected from light, the absorbance was read at 550 nm using a microplate spectrophotometer. The concentration of nitrites present in the supernatants was determined by interpolation of the absorbance of each sample in a sodium nitrite standard curve. The results of four independent experiments, in duplicate, were expressed as the percentage of NO production by cells versus the concentration of the chemicals compared with LPS (100%).

human fibroblasts = settings: ref [15],[16],[17]; cited from earlier work
[4] = tested on: THP-1 cells (CD54 and CD86 expression); experiment: Skin sensitization potential, h-CLAT (CD54 and CD86 expression); type: cell-based, human; settings: THP-1, h-CLAT
Description: The cell culture of keratinocytes was detached with EDTA solution 1X (Sigma-Aldrich, St. Louis, MO, USA) when the cells reached 70–80% confluence in cell culture flasks. […] Macrophages were mechanically detached with a cell scraper and subcultured in (1:10) proportion of cellular suspension to a final volume of DMEM. […] Cells were subcultured every 2 or 3 days and maintained in culture for 2–3 months, according to ATCC® instructions.
Following OECD guidelines, researchers utilized the THP-1 human monocyte cell line as a substitute for dendritic cells (DCs) to assess skin sensitization potential. […] The cell pellet was further resuspended in 100 µL of PBS and analyzed by flow cytometry using a BD Accuri™ C6 cytometer (San Jose, CA, USA).
CD86 and CD54 levels were analyzed by flow cytometry using the acquisition channels FL1 and FL4. Mitochondrial O2^− production was measured by flow cytometry using the acquisition channel FL2. The relative fluorescence intensity (RFI) of CD86 and CD54 (THP-1 maturation assay) and MitoSOX (mitochondrial antioxidant activity) in the control and chemical-treated cells, based on the geometric mean fluorescence intensity (MFI), was calculated according to the following equation: RFI=MFI of chemical treated cells−MFI of chemical treated unstained cells/MFI of control treated cells−MFI of control unstained cells ×100

Compound	EC50 [1] [µM]	pH stability [2]	variations in absorbance ([2]; acidic and neutral pH, 100 µM aqueous buffer) [%]	effect on NO production [3]	reduction of NO production ([3]; relative to LPS = 100%) [%]	collagen production (human fibroblasts) [µg/well]	skin sensitization potential [4]
O=C1O[C@H]([C@@H](O)CO)C(O)=C1O [AA, Ascorbic acid]	16.3 ± 0.569	unstable at acidic and neutral pH	> 90	inhibited NO production	30		
O=C1O[C@H]([C@@H](O)CO)C(O)=C1O[C@H]1O[C@H](CO)[C@@H](O)[C@H](O)[C@H]1O [AAG, 2-O-α-D-glucopyranosyl-L-ascorbic acid]				inhibited NO production		> 12	AA, AAG, and AAGS with non-sensitizer profile
O=C1OC(C(COS(=O)(=O)O)OS(=O)(=O)O)C(OS(=O)(=O)O)=C1OC1OC(COS(=O)(=O)O)C(OS(=O)(=O)O)C(OS(=O)(=O)O)C1OS(=O)(=O)O [AAGS, 2-O-α-D-glucopyranosyl-L-ascorbic acid persulfate]		improved stability covering a larger range of pH values (pH = 2–6)					non-sensitizing profile; also recorded: AA, AAG, and AAGS with non-sensitizer profile
